Columns and labels:
[1] = tested on: HCV 2a, 2b, 3a and 4a replicons; assay: HCV 2a, 2b, 3a and 4a replicon assays in the absence of human plasma; type: cell-based
Protocol: The inhibitory effects of the compounds of the invention on HCV replication can be determined by measuring activity of the luciferase reporter gene. For example, replicon-containing cells can be seeded into 96 well plates at a density of 5000 cells per well in 100 μl DMEM containing 5% FBS. The following day compounds can be diluted in dimethyl sulfoxide (DMSO) to generate a 200× stock in a series of eight half-log dilutions. The dilution series can then be further diluted 100-fold in the medium containing 5% FBS. Medium with the inhibitor is added to the overnight cell culture plates already containing 100 μl of DMEM with 5% FBS. In assays measuring inhibitory activity in the presence of human plasma, the medium from the overnight cell culture plates can be replaced with DMEM containing 40% human plasma and 5% FBS. […] Luciferin solution (100 μl, Promega) can be added to each well, and luciferase activity can be measured with a Victor II luminometer (Perkin-Elmer). The percent inhibition of HCV RNA replication can be calculated for each compound concentration and the EC50 value can be calculated using nonlinear regression curve fitting to the 4-parameter logistic equation and GraphPal Prism 4 software.

[2] = tested on: HCV 1b-Con1 replicon; assay: HCV 1b-Con1 replicon assay in the presence of 5% FBS; type: cell-based; settings: Hepatitis C virus
[3] = AUC value (pharmacokinetics); settings: in vivo

SMILES	EC50 values, fold less than those of Example 4.25 [1]	EC50 [2]	AUC value, fold greater than that of Example 2.9 [3]	AUC value, fold greater than that of Example 109 of the '301 application [3]
COC(=O)N[C@H](C(=O)N1CCC[C@H]1c1nc2cc([C@H]3CC[C@H](c4ccc5[nH]c([C@@H]6CCCN6C(=O)[C@@H](NC(=O)OC)C(C)C)nc5c4)N3c3ccc(N4CCC(c5ccccc5)CC4)c(F)c3)ccc2[nH]1)C(C)C [Example 3.20, methyl {(2S)-1-[(2S)-2-{5-[(2R,5R)-1-[3-fluoro-4-(4-phenylpiperidin-1-yl)phenyl]-5-{2-[(2S)-1-{(2S)-2-[(methoxycarbonyl)amino]-3-methylbutanoyl}pyrrolidin-2-yl]-1H-benzimidazol-5-yl}pyrrolidin-2-yl]-1H-benzimidazol-2-yl}pyrrolidin-1-yl]-3-methyl-1-oxobutan-2-yl}carbamate]	at least 15 fold	< 0.1 nM	–	–
COC(=O)N[C@H](C(=O)N1CCC[C@H]1c1nc2cc([C@H]3CC[C@H](c4ccc5[nH]c([C@@H]6CCCN6C(=O)[C@@H](NC(=O)OC)C(C)C)nc5c4)N3c3cc(F)c(N4CCC(c5ccccc5)CC4)c(F)c3)ccc2[nH]1)C(C)C [Example 5.1, methyl {(2S)-1-[(2S)-2-{5-[(2R,5R)-1-[3,5-difluoro-4-(4-phenylpiperidin-1-yl)phenyl]-5-{2-[(2S)-1-{(2S)-2-[(methoxycarbonyl)amino]-3-methylbutanoyl}pyrrolidin-2-yl]-1H-benzimidazol-5-yl}pyrrolidin-2-yl]-1H-benzimidazol-2-yl}pyrrolidin-1-yl]-3-methyl-1-oxobutan-2-yl}carbamate]	at least 50 fold	< 0.1 nM	about 30 fold	–
COC(=O)N[C@H](C(=O)N1CCC[C@H]1c1nc2cc([C@H]3CC[C@H](c4cc5[nH]c([C@@H]6CCCN6C(=O)[C@@H](NC(=O)OC)C(C)C)nc5cc4F)N3c3ccc(C(C)(C)C)cc3)c(F)cc2[nH]1)C(C)C [Example 6.1, methyl {(2S)-1-[(2S)-2-{5-[(2R,5R)-1-(4-tert-butylphenyl)-5-{5-fluoro-2-[(2S)-1-{(2S)-2-[(methoxycarbonyl)amino]-3-methylbutanoyl}pyrrolidin-2-yl]-1H-benzimidazol-6-yl}pyrrolidin-2-yl]-6-fluoro-1H-benzimidazol-2-yl}pyrrolidin-1-yl]-3-methyl-1-oxobutan-2-yl}carbamate]	–	< 0.1 nM	–	about 9 fold
COC(=O)N[C@H](C(=O)N1CCC[C@H]1c1nc2ccc([C@H]3CC[C@H](c4ccc5nc([C@@H]6CCCN6C(=O)[C@@H](NC(=O)OC)C(C)C)[nH]c5c4)N3c3cc(F)c(N4CCC(c5ccccn5)CC4)c(F)c3)cc2[nH]1)C(C)C [Example 2.13, methyl {(2S)-1-[(2S)-2-{5-[(2R,5R)-1-{3,5-difluoro-4-[4-(pyridin-2-yl)piperidin-1-yl]phenyl}-5-{2-[(2S)-1-{(2S)-2-[(methoxycarbonyl)amino]-3-methylbutanoyl}pyrrolidin-2-yl]-1H-benzimidazol-5-yl}pyrrolidin-2-yl]-1H-benzimidazol-2-yl}pyrrolidin-1-yl]-3-methyl-1-oxobutan-2-yl}carbamate]	–	< 0.1 nM	–	–
COC(=O)N[C@H](C(=O)N1CCC[C@H]1c1nc2cc([C@H]3CC[C@H](c4ccc5[nH]c([C@@H]6CCCN6C(=O)[C@@H](NC(=O)OC)C6CCOCC6)nc5c4)N3c3ccc(N4CCC(c5ccccc5)CC4)c(F)c3)ccc2[nH]1)C(C)C [Example 3.21, methyl [(1S)-2-[(2S)-2-{5-[(2R,5R)-1-[3-fluoro-4-(4-phenylpiperidin-1-yl)phenyl]-5-{2-[(2S)-1-{(2S)-2-[(methoxycarbonyl)amino]-3-methylbutanoyl}pyrrolidin-2-yl]-1H-benzimidazol-5-yl}pyrrolidin-2-yl]-1H-benzimidazol-2-yl}pyrrolidin-1-yl]-2-oxo-1-(tetrahydro-2H-pyran-4-yl)ethyl]carbamate]	–	< 0.1 nM	–	–
COC(=O)N[C@H](C(=O)N1CCC[C@H]1c1nc2cc([C@H]3CC[C@H](c4ccc5[nH]c([C@@H]6CCCN6C(=O)[C@@H](NC(=O)OC)C(C)C)nc5c4)N3c3cc(F)c(N4CCN(c5ccc(C(F)(F)F)cc5)CC4)c(F)c3)ccc2[nH]1)C(C)C [Example 2.17, methyl {(2S)-1-[(2S)-2-{5-[(2R,5R)-1-(3,5-difluoro-4-{4-[4-(trifluoromethyl)phenyl]piperazin-1-yl}phenyl)-5-{2-[(2S)-1-(2S)-2-[(methoxycarbonyl)amino]-3-methylbutanoylpyrrolidin-2-yl]-1H-benzimidazol-5-yl}pyrrolidin-2-yl]-1H-benzimidazol-2-yl}pyrrolidin-1-yl]-3-methyl-1-oxobutan-2-yl}carbamate]	–	< 0.1 nM	–	–

Reference: patent publication US20120220562A1, “Anti-Viral Compounds” (ABBOTT LABAORATORIES, priority 2011, published 2012)
